Experimental data as given in patent publication US6645954B2, “Compositions comprising ethisterone or its derivatives” (Multimed Limited, priority 1998, dated 2003).
“And” between values parts separate entries of the source, which are not always exact repeats. Identical values can stand only once.

What was measured:
[1] = Andropause CheckList score (ACL) and clinical symptom response in hypogonadal men; format: in vivo, human; details: for clinical response / symptoms: Example 2, person, pre-treatment ACL 25, successive treatments
Experimental: ACL—Andropause CheckList Score—A questionnaire rating the incidence and severity of symptoms of the andropause. The greater the checklist score, the more severe are the symptoms.
These consecutive referrals were evaluated at interview by administering a questionnaire, the “Andropause Check List” which rated each symptom on a five point rating scale as being absent (0), slight (1), moderate (2), severe (3) or total (4). It also included questions on the monthly frequency of intercourse and masturbation. A detailed history was taken focussing especially on factors which might affect testicular function and this was entered onto a computerised database (Microsoft Access).
(§1) During treatment, the severity of symptoms and level of sexual activity on the Andropause Check List score was reassessed at three monthly intervals, as well as weight, blood pressure, resting pulse rate, full endocrine, biochemical and haematological profiles, and in some cases ultrasound studies of the prostate and testes. In all cases, subjects were used as their own controls in the comparison of the effects of treatment. All results were stored in a specially designed Microsoft Access database, and […] analyes were carried out using the SPSS version 9 programme.

[2] = test system: dihydrotestosterone; test: Dihydrotestosterone (DHT) in fasting blood; format: in vivo, human; details: Clinical trial; treatment alone, without Danazol
Text: (§2) Fasting blood samples were taken between 9 and 12 am to minimize the effects of diurnal variation, and analyses included the standard full biochemical, lipid and haematology profiles, prostate specific antigen and routine urine analysis. The endocrine assessment included follicle stimulating hormone (FSH) and luteinizing hormone (LH) prolactin, total testosterone (TT), dihydrotestosterone (DHT), sex hormone binding globulin (SHBG), oestradiol (E2) cortisol and either total thyroxine or TSH.

[3] = test system: Total Testosterone; test: Total Testosterone (TT) in fasting blood; format: in vivo, human
Text: TT—Total Testosterone in nmol/l (NR 13-35)
as §2

[4] = test system: Sex Hormone Binding Globulin; test: Sex Hormone Binding Globulin (SHBG) in fasting blood; format: in vivo, human; details: for Sex Hormone Binding Globulin: Clinical trial, FIG. 4, started above the normal range (20-45 nmol/l) in Danazol groups
Text: SHBG—Sex Hormone Binding Globulin in nmol/l (NR 20-45)
as §2

[5] = test system: Free Androgen Index; test: Free Androgen Index (FAI = TT/SHBG x 100); format: in vivo, human
Text: It has been found (Carruthers, M. ‘The Male Menopause, Harpercollins’, London, 1996) that the symptoms associated with this condition arise due to an absolute or relative insufficiency of testosterone, particularly the latter, caused by a reduction in the Free Active Testosterone (FAT); that is a lack of testosterone present in an unbound state in blood plasma. Testosterone in vivo can be bound to sex hormone binding globulin (SHBG) and to a lesser extent, albumin. When bound the testosterone is not freely available to the body or bio-available. One of the best measures of this is the ‘Free Androgen Index’ (FAI). This is calculated by dividing the Total Testosterone (TT) by the ‘sex Hormone Binding Globulin’ (SHBG) and multiplying by a hundred to express it as a percentage. In the healthy, asymptomatic male this is normally in the range 70-100%. Symptoms of the andropause regularly appear when this drops below 50%, except in a few cases where the TT is low and the body appears to compensate by reducing SHBG levels to maintain the FAI.
FAI—Free Androgen Index (NR 70-100%)

[6] = test system: Follicle Stimulating Hormone; test: Follicle Stimulating Hormone (FSH) in fasting blood; format: in vivo, human
Text: FSH—Follicle Stimulating Hormone in IU/l (NR 1-6)
as §2

[7] = test system: Luteinising Hormone; test: Luteinising Hormone (LH) in fasting blood; format: in vivo, human
Text: LH—Luteinising Hormone in IU/l (NR 0.7-6)
as §2

[8] = test system: Total Testosterone; details: cited from earlier work
[9] = Adverse effects / tolerability; details: Example 2
[10] = test system: Oestradiol; test: Oestradiol (E2) in fasting blood; format: in vivo, human
Text: as §2

[11] = Sexual activity (intercourse per month) reported by subjects; format: in vivo, human; details: Example 5, person; D1 alone, within 3 months; before: once a month
[12] = test system: Prostate Specific Antigen; test: PSA, biochemistry and haematology profiles during treatment; format: in vivo, human; details: Example 5; D1 alone, 2 years
Text: PSA—Total Prostate Specific Antigen in ug/l (NR<4.0)
as §2, §1

[13] = target: T1, progesterone receptors (Homo sapiens, UniProt P06401); details: cited from earlier work
T1 sequence (P06401 1-933): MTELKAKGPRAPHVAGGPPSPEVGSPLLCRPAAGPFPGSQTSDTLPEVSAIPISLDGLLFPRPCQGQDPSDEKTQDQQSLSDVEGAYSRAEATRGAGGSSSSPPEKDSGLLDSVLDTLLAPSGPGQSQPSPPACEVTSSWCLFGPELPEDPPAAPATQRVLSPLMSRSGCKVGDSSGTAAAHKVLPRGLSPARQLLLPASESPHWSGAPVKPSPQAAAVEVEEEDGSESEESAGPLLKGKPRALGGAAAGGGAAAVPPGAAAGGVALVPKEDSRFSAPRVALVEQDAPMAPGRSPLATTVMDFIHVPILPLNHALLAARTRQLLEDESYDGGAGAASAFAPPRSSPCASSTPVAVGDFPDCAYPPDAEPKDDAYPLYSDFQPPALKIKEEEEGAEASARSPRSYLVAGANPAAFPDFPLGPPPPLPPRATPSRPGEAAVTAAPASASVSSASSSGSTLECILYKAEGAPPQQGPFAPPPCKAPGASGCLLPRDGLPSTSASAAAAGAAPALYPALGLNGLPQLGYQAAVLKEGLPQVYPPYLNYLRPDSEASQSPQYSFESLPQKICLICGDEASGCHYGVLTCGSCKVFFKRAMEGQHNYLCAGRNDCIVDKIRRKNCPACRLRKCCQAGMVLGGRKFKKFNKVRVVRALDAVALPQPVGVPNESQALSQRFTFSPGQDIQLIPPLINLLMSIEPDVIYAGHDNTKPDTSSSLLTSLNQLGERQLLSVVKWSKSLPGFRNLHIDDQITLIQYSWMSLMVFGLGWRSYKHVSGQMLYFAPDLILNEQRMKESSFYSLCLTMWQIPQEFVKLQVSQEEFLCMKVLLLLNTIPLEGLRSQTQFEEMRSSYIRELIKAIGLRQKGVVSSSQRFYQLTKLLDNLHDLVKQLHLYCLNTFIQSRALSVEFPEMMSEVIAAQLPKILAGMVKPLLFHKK

[14] = test system: oestrogen receptors; details: cited from earlier work
[15] = Example 1, R3 increased monthly to R4 then R6

Structure (SMILES): C[C@H]1CC(=O)C[C@@H]2CC[C@H]3[C@@H]4CC[C@H](O)[C@@]4(C)CC[C@@H]3[C@]21C [ME, mesterolone]
- clinical response / symptoms [1]: poor clinical response
- DHT [2]: trebling

Structure (SMILES): C[C@]12CC[C@H]3[C@@H](CCC4=CC(=O)CC[C@@]43C)[C@@H]1CC[C@@H]2O [TI, testosterone]
- symptoms ([1]; Example 1, TI, 3 years after starting treatment): symptoms reappeared
- erection problems ([1]; Example 1, after change to TI): rapidly improved
- clinical response / symptoms [1]: relieved their symptoms
- TT ([3]; Example 1, TI, a year later): 35.6 nmol/L
- TT ([3]; Example 3, TI, after 6 months): 30.6 nmol/L
- SHBG ([4]; Example 1, TI, a year later): 74 nmol/L
- SHBG ([4]; Example 3, TI alone, successive values during the following 2 years): 82.1 nmol/L and 85 nmol/L and 54 nmol/L and 81 nmol/L
- SHBG ([4]; Example 3, TI, after 6 months): 95.3 nmol/L
- FAI ([5]; Example 1, TI, a year later): 48%
- FAI ([5]; Example 3, TI, after 6 months): 32%
- FSH ([6]; Example 1, TI, a year later): total suppression
- LH ([7]; Example 1, TI, a year later): total suppression
- DHT [2]: no increase
- mean testosterone levels ([8]; previous study, samples taken 3 months after implantation): 45 nmol/L
- adverse events of implant [9]: became infected on several occasions, with extrusion of pellets

Structure (SMILES): CCCCCCCCCCC(=O)O[C@H]1CC[C@H]2[C@@H]3CCC4=CC(=O)CC[C@]4(C)[C@H]3CC[C@]12C [Restandol, testosterone undecanoate]
- relief of symptoms ([1]; Example 1, person, R3 increased at monthly intervals to R4 then R6): only partial relief of symptoms
- clinical response / symptoms [1]: poor clinical response
- clinical results ([1]; Example 6, further reduction of testosterone dosage to the lowest level of R2): excellent
- TT ([3]; Example 1, R3 increased monthly to R4 then R6, pre-treatment 27.4): 21.4 nmol/L
- TT ([3]; Example 3, person, R6, after 3 months, pre-treatment 20): 22.2 nmol/L
- Sex Hormone Binding Globulin [4]: reduction in SHBG levels on its own
- SHBG ([4]; Example 1, R3 increased monthly to R4 then R6, Restandol alone, pre-treatment 73): 47 nmol/L
- SHBG ([4]; Example 3, R6, after 3 months, pre-treatment 56.7): 112 nmol/L
- FAI ([5]; Example 1, R3 increased monthly to R4 then R6, pre-treatment 38%): 46%
- FAI ([5]; Example 3, R6, after 3 months, pre-treatment 35): 19.8%
- FSH [6, 15]: 8.9 IU/l
- LH ([7]; Example 1, R3 increased monthly to R4 then R6, pre-treatment 6.1): 6.7 IU/l
- E2 [10, 15]: 178 pmol/L

Structure (SMILES): C#C[C@]1(O)CC[C@H]2[C@@H]3CCC4=Cc5oncc5C[C@]4(C)[C@H]3CC[C@@]21C [Danazol, [1,2], oxazolo[4,5-b]17alpha-pregna-2,4-dien-20-yn-17beta-ol]
- total Andropause Check List (ACL) score ([1]; Clinical trial, FIG. 1, Danazol 100 mg alternate mornings or daily added to testosterone treatment, up to six 3-6 monthly visits): fell equally
- efficacy of testosterone treatment for hypogonadal men ([1]; Clinical trial, danazol added to three different forms of testosterone treatment, particularly where SHBG raised): greatly increased their efficacy
- clinical response ([1]; Example 5, D1 alone, for 2 years): maintained
- ACL ([1]; Example 5, D1 alone, within 3 months, pre-treatment ACL 26): 14
- sexual activity [11]: twice a week
- TT ([3]; Example 5, D1 alone, within 3 months, pre-treatment 50): 48 nmol/L
- Sex Hormone Binding Globulin [4]: uniformly ended at the bottom end of it
- SHBG ([4]; Example 5, D1 alone, successive values over 2 years, listed as D1): 19 nmol/L and 23 nmol/L and 17 nmol/L
- SHBG ([4]; Example 5, D1 alone, within 3 months, pre-treatment 72): 39 nmol/L
- Free Androgen Indices ([5]; Clinical trial, FIG. 5, Danazol added to the three testosterone treatments): markedly increased
- FAI ([5]; Example 5, D1 alone, within 3 months, pre-treatment 69.4): 123%
- FSH ([6]; Clinical trial, FIG. 6, Danazol added to the testosterone treatment): greater reductions
- FSH ([6]; Example 5, D1 alone, within 3 months, pre-treatment 5.9): 4.5 IU/l
- LH (gonadotrophins) ([7]; Clinical trial, FIG. 7, Danazol added to the testosterone treatment): greater reductions
- LH ([7]; Example 5, D1 alone, within 3 months, pre-treatment 6.0): 2.9 IU/l
- E2 ([10]; Example 5, D1 alone, within 3 months, pre-treatment 120): < 44 pmol/L
- effects on PSA, full biochemistry or haematological profile [12]: no adverse effects
- total plasma testosterone ([8]; previous uses in women and men at doses of 200 to 600 mg): reduced
- affinity for progesterone receptors [13]: low affinity
- interaction with oestrogen receptors [14]: does not interact with oestrogen receptors to any significant extent
